Experimental data taken from US8399674B2, “Quinolines” (Hoffman-La Roche Inc., priority 2007, dated 2013).

How the values were obtained:
[1] = target: T1, recombinant human 5-HT5A receptor (Homo sapiens, UniProt P47898); assay: [3H]LSD radioligand binding assay, membranes of HEK-EBNA cells transiently expressing the receptor; conditions: [3H]LSD approx. 1 nM, 120 min room temperature, Ki from IC50 by Cheng-Prussoff equation, read-out: Ki (affinity towards the human 5-HT5A receptor)
T1 construct: expressed in transfected cells; host or cells: HEK-EBNA (Human Embryonic Kidney-EBNA) cells, transient transfection; membranes
Description: A [^3H] LSD radioligand binding assay was used to determine the affinity of the compounds for the recombinant human 5-HT5A receptor, in membranes from transiently (cDNA) expressed 5-HT5A receptors in Human Embryonic Kidney-EBNA (HEK-EBNA) cells.
Assay buffer consisted of Tris (50 mM) buffer containing 1 mM EGTA, 10 mM MgCl2 (pH 7.4) and 10 μM pargyline. The binding assay was carried out in 96-well-plates in the presence of [^3H]LSD (approximately 1 nM), approximately 2 μg/well of membrane protein, and 0.5 mg of Ysi-poly-1-lysine SPA beads in a final volume of 200 μl of buffer. Non-specific binding was defined using methiothepin 2 μM. Compounds were tested at 10 concentrations. All assays were conducted in duplicate and repeated at least two times. Assay plates were incubated for 120 min at room temperature before centrifugation. Bound ligand was determined using a Packard Topcount scintillation counter. IC50 values were calculated using a non-linear curve fitting program and Ki values calculated using the Cheng-Prussoff equation.

T1 sequence (P47898 whole entry): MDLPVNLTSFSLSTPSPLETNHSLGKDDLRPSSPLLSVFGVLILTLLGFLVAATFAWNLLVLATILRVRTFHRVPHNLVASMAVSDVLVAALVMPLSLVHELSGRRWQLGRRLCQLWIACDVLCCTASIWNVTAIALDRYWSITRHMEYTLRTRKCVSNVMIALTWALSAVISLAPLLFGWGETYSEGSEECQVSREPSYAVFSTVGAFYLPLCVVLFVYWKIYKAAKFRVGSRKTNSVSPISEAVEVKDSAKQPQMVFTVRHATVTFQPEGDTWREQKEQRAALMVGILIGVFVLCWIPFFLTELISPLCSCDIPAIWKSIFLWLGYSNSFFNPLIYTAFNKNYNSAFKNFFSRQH

melting point	Ki [1]	Structure (SMILES)
157.5 °C		COc1ccccc1CNc1ccc2cc(Nc3nc(C)cc(C)n3)ccc2n1 [Example 89, N6-(4,6-Dimethyl-pyrimidin-2-yl)-N2-(2-methoxy-benzyl)-quinoline-2,6-diamine]
125 °C	0.033 µM	COc1ccccc1CNc1ccc2cc(Nc3nccc(C)n3)ccc2n1 [Example 90, N2-(2-Methoxy-benzyl)-N6-(4-methyl-pyrimidin-2-yl)-quinoline-2,6-diamine]
163 °C		COc1ccccc1CNc1ccc2cc(Nc3ncccc3C)ccc2n1 [Example 91, N2-(2-Methoxy-benzyl)-N6-(3-methyl-pyridin-2-yl)-quinoline-2,6-diamine]
134 °C		COc1ccccc1CNc1ccc2cc(Nc3cccc(C)n3)ccc2n1 [Example 93, N2-(2-Methoxy-benzyl)-N6-(6-methyl-pyridin-2-yl)-quinoline-2,6-diamine]
114 °C	0.03 µM	COc1ccccc1CNc1ccc2cc(Nc3nccc(C(F)(F)F)n3)ccc2n1 [Example 94, N2-(2-Methoxy-benzyl)-N6-(4-trifluoromethyl-pyrimidin-2-yl)-quinoline-2,6-diamine]
205 °C		COc1ccccc1CNc1ccc2cc(Nc3ncco3)ccc2n1 [Example 100, N2-(2-Methoxy-benzyl)-N6-oxazol-2-yl-quinoline-2,6-diamine]

The next lines start with the compound.

Structure (SMILES)	melting point	Ki [1]
COc1ccccc1CNc1ccc2cc(Nc3nnc(C)o3)ccc2n1 [Example 85, N2-(2-Methoxy-benzyl)-N6-(5-methyl-[1,3,4]oxadiazol-2-yl)-quinoline-2,6-diamine]	183 °C	
COc1ccccc1CNc1ccc2cc(Nc3nc(C)no3)ccc2n1 [Example 86, N2-(2-Methoxy-benzyl)-N6-(3-methyl-[1,2,4]oxadiazol-5-yl)-quinoline-2,6-diamine]	175 °C	
CCn1nnc(Nc2ccc3nc(NCc4ccccc4OC)ccc3c2)n1 [Example 87, N6-(2-Ethyl-2H-tetrazol-5-yl)-N2-(2-methoxy-benzyl)-quinoline-2,6-diamine]	190 °C	0.044 µM
COc1ccccc1CNc1ccc2cc(Nc3cc(C)on3)ccc2n1 [Example 88, N2-(2-Methoxy-benzyl)-N6-(5-methyl-isoxazol-3-yl)-quinoline-2,6-diamine]	132 °C	0.026 µM
COc1ccccc1CNc1ccc2cc(Nc3ccccn3)ccc2n1 [Example 92, N2-(2-Methoxy-benzyl)-N6-pyridin-2-yl-quinoline-2,6-diamine]	134 °C	0.034 µM
COc1ccccc1CNc1ccc2cc(Nc3nnn(C(C)(C)C)n3)ccc2n1 [Example 95, N6-(2-tert-Butyl-2H-tetrazol-5-yl)-N2-(2-methoxy-benzyl)-quinoline-2,6-diamine]	156 °C	
COc1ccccc1CNc1ccc2cc(Nc3nnc(C4CC4)o3)ccc2n1 [Example 96, N6-(5-Cyclopropyl-[1,3,4]oxadiazol-2-yl)-N2-(2-methoxy-benzyl)-quinoline-2,6-diamine]	199 °C	0.047 µM
COc1ccccc1CNc1ccc2cc(Nc3nnc(C(F)(F)F)o3)ccc2n1 [Example 97, N2-(2-Methoxy-benzyl)-N6-(5-trifluoromethyl-[1,3,4]oxadiazol-2-yl)-quinoline-2,6-diamine]	198 °C	
COc1ccccc1CNc1ccc2cc(Nc3nc(C(F)(F)F)co3)ccc2n1 [Example 98, N2-(2-Methoxy-benzyl)-N6-(4-trifluoromethyl-oxazol-2-yl)-quinoline-2,6-diamine]	144 °C	
COc1ccccc1CNc1ccc2cc(Nc3ncc(C(F)(F)F)o3)ccc2n1 [Example 99, N2-(2-Methoxy-benzyl)-N6-(5-trifluoromethyl-oxazol-2-yl)-quinoline-2,6-diamine]	166 °C	
COc1ccccc1CNc1ccc2cc(Nc3cccc(C(F)(F)F)n3)ccc2n1 [Example 101, N2-(2-Methoxy-benzyl)-N6-(6-trifluoromethyl-pyridin-2-yl)-quinoline-2,6-diamine]	151 °C	
COc1ccccc1CNc1ccc2cc(Nc3nc4cc(C)ccc4o3)ccc2n1 [Example 102, N2-(2-Methoxy-benzyl)-N6-(5-methyl-benzooxazol-2-yl)-quinoline-2,6-diamine]	220 °C	
